Values of other authors in patent US5998407A, “Inhibitors of farnesyl-protein transferase” (Merck & Co., Inc., priority 1998, dated 1999).

Test system: farnesyl-protein transferase
Conditions: via inhibition of HMG-CoA reductase

SMILES	Indirect inhibition of farnesyl-protein transferase in vivo
CC[C@H](C)C(=O)O[C@H]1CCC=C2C=C[C@H](C)[C@H](CC[C@@H]3C[C@@H](O)CC(=O)O3)[C@H]21 [compactin]	Indirect inhibition of farnesyl-protein transferase in vivo has been demonstrated
CC[C@H](C)C(=O)O[C@H]1C[C@@H](C)C=C2C=C[C@H](C)[C@H](CC[C@@H]3C[C@@H](O)CC(=O)O3)[C@H]21 [lovastatin]	Indirect inhibition of farnesyl-protein transferase in vivo has been demonstrated
